From patent publication US9932339B2, “Helquats with heteroaromatic substituents, preparation thereof, and use thereof as G-quadruplex stabilizers” (USTAV ORGANICKE CHEMIE A BIOCHEMIE AV CR, V.V.I., priority 2014, dated 2018)
Where two headings read alike, the source gives them in different places.

How the values were obtained:
CCRF-CEM = assay: XTT cytotoxicity/proliferation assay, CCRF-CEM; format: cell-based; settings: Homo sapiens, CCRF-CEM
Method in brief: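 CCRF-CEM cells plated at 3000 per well, treated next day for 72 h with helquats over 1-100 μmol·l^−1. Viability by XTT reduction (2 h), absorbance 492 nm with 690 nm reference; IC50 from triplicates, repeated in at least three independent experiments, values above 100 μmol·l^−1 extrapolated.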

HUVEC = assay: XTT cytotoxicity/proliferation assay, HUVEC; format: cell-based, human; settings: Homo sapiens, HUVEC
Method in brief: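 HUVEC (passages 3–8, collagen I-coated dishes, E-STIM medium) plated at 3000 cells/well, dosed next day with compounds in water. After 72 h at 37 °C, XTT added for 2 h; absorbance at 492 nm (reference 690 nm) against untreated and medium-only controls.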

[1] = 72 hours of treatment, read-out: IC50 CCRF CEM
[2] = 72 hours, summary of table 9, read-out: concentrations toxic towards CCRF-CEM cells
[3] = 72 hours of treatment, values above 100 μmol·l^−1 obtained by extrapolation, read-out: IC50 HUVEC
[4] = 72 hours, summary of table 9, read-out: concentrations non-toxic towards HUVEC cells

| Structure (SMILES) | IC50 (CCRF-CEM; [1]) | IC50 (CCRF-CEM; [2]) | IC50 (HUVEC; [3]) | IC50 (HUVEC; [4]) |
| --- | --- | --- | --- | --- |
| O=[N+]([O-])c1cccc2[nH]cc(/C=C/c3cc[n+]4c(c3)-c3c(ccc5c3-c3cccc[n+]3CC5)CC4)c12 (racemic) [LSA-C9-32, (rac)-(E)-2-(2-(4-nitro-1H-indol-3-yl)vinyl)-6,7,10,11-tetrahydrodipyrido[2,1-a:1′,2′-k][2,9]phenanthroline-5,12-diium trifluoromethanesulfonate] | 11 to 25 µM | < 25 µM | ≥ 100 µM | > 100 µM |
| Cc1c(C)c2c(c3c1CC[n+]1ccc(/C=C/c4cccc5c4oc4ccccc45)cc1-3)-c1c3ccccc3cc[n+]1CC2 (racemic) [MJA-C13-8, (rac)-(E)-13-(2-(dibenzo[b,d]furan-4-yl)vinyl)-6,7-dimethyl-4,5,8,9-tetrahydroisoquinolino[1,2-a]pyrido[1,2-k][2,9]phenanthroline-3,10-diium trifluoromethanesulfonate] | 26 to 50 µM |  | ≥ 100 µM |  |
| C(=C\c1cccc2c1oc1ccccc12)/c1cc[n+]2c(c1)-c1c(ccc3c1-c1c4ccccc4cc[n+]1CC3)CC2.O=S(=O)([O-])C(F)(F)F.O=S(=O)([O-])C(F)(F)F [MSB-C13-8, (E)-13-(2-(dibenzo[b,d]furan-4-yl)vinyl)-4,5,8,9-tetrahydroisoquinolino[1,2-a]pyrido[1,2-k][2,9]phenanthroline-3,10-diium trifluoromethanesulfonate] | 26 to 50 µM |  | ≥ 100 µM |  |
| Brc1ccc2[nH]cc(/C=C/c3cc4ccccc4[n+]4c3-c3c(ccc5c3-c3cccc[n+]3CCC5)CCC4)c2c1.O=S(=O)([O-])C(F)(F)F.O=S(=O)([O-])C(F)(F)F [MSC-C9-30, 19-((E)-2-(5-bromo-1H-indol-3-yl)vinyl)-6,7,8,11,12,13-hexahydropyrido[1′″,2′″:1″,2″]azepino[4″,3″:5′,6′]benzo[1′,2′:3,4]azepino[1,2-a]quinoline-5,14-diium trifluoromethanesulfonate] | ≤ 10 µM | < 25 µM | ≥ 100 µM | > 100 µM |
| C(=C\c1c(-c2ccccc2)[nH]c2ccccc12)/c1cc2ccccc2[n+]2c1-c1c(ccc3c1-c1cccc[n+]1CCC3)CCC2.O=S(=O)([O-])C(F)(F)F.O=S(=O)([O-])C(F)(F)F [MSC-C15-8, 19-((E)-2-(2-phenyl-1H-indol-3-yl)vinyl)-6,7,8,11,12,13-hexahydropyrido[1′″,2′″:1″,2″]azepino[4″,3″:5′,6′]benzo[1′,2′:3,4]azepino[1,2-a]quinoline-5,14-diium trifluoromethanesulfonate] | 11 to 25 µM |  | ≥ 51 µM |  |
